Activity calls are given as the source filed them. No cut-off for these calls is given here.
Tests used:
HepG2 = assay: Cytotoxicity against human HepG2 cells assessed as reduction in cell viability incubated for 72 hrs by MTS assay; type: functional, cell-based; conditions: HepG2, 72 h
U2OS [1] = assay: Cytotoxicity against human U2OS cells assessed as reduction in cell viability incubated for 72 hrs by MTS assay; type: functional, cell-based
[2] = Cytotoxicity against human MCF-10A cells assessed as reduction in cell viability incubated for 72 hrs by MTS assay; type: toxicity, cell-based
HCT-116 [3] = assay: Induction of cell cycle arrest in human HCT-116 cells assessed as accumulation at G0/G1 phase at 1 uM after 24 hrs by propidium iodide-staining based flow cytometry (reference value: 58.01 +/- 1.77%); type: functional
HCT-116 [4] = assay: Induction of cell cycle arrest in human HCT-116 cells assessed as accumulation at S phase at 1 uM after 24 hrs by propidium iodide-staining based flow cytometry (reference value: 17.17 +/- 0.18%); type: functional
HCT-116 [5] = assay: Induction of cell cycle arrest in human HCT-116 cells assessed as accumulation at S phase at 5 uM after 24 hrs by propidium iodide-staining based flow cytometry (reference value: 17.17 +/- 0.18%); type: functional
HCT-116 [6] = assay: Induction of cell cycle arrest in human HCT-116 cells assessed as accumulation at G2/M phase at 2 uM after 24 hrs by propidium iodide-staining based flow cytometry (reference value: 23.25 +/- 1.38%); type: functional
U2OS [7] = assay: Inhibition of homologous recombinant repair in human U2OS cells assessed as I-SceI induced double […] break pretreated with I-SceI for 36 hrs followed by compound addition and measured after 12 hrs; type: functional, cell-based; conditions: dose 0.625-2.5 µM, DDE = dose-dependent effect
[8] = Cmax in BALB/c mouse at 5 mg/kg; type: ADME, organism-based; set-up: dose 5 mg/kg; conditions: in vivo
[9] = Cmax in BALB/c mouse at 20 mg/kg; type: ADME, organism-based; set-up: dose 20 mg/kg; conditions: in vivo
[10] = AUCt in BALB/c mouse at 5 mg/kg; type: ADME, organism-based; set-up: dose 5 mg/kg; conditions: in vivo
[11] = AUCt in BALB/c mouse at 10 mg/kg; type: ADME, organism-based; set-up: dose 10 mg/kg; conditions: in vivo
[12] = AUCt in BALB/c mouse at 20 mg/kg; type: ADME, organism-based; set-up: dose 20 mg/kg; conditions: in vivo
[13] = Clearance in BALB/c mouse at 20 mg/kg; type: ADME, organism-based; conditions: in vivo
[14] = Metabolic stability in human liver microsomes assessed as clearance at 0.5 uM by LC-MS analysis; type: ADME, Microsome
[15] = Toxicity in BALB/c mouse assessed as animal death at less than 50 mg/kg, ip after 7 days; type: organism-based; conditions: in vivo, 168 h, time 7 day
[16] = Toxicity in BALB/c nude mouse assessed as animal death 25 mg/kg, ip after 7 days; type: organism-based; conditions: in vivo, 168 h, time 7 day
[17] = Toxicity in BALB/c nude mouse assessed as animal death 50 mg/kg, ip after 7 days; type: organism-based; conditions: in vivo, 168 h, time 7 day
[18] = Toxicity in BALB/c nude mouse assessed as animal death 12.5 mg/kg, ip after 7 days; type: organism-based; conditions: in vivo, 168 h, time 7 day
[19] = Toxicity in BALB/c nude mouse assessed as diarrhea 12.5 mg/kg, ip after 7 days; type: organism-based; conditions: in vivo, 168 h, time 7 day
[20] = Toxicity in BALB/c nude mouse assessed as maximum tolerable dose; conditions: in vivo
HCT-116 [21] = assay: Antitumor activity against human HCT-116 cells xenografted in ip dosed BALB/c nude mouse assessed as tumor growth inhibition; type: functional, organism-based; conditions: dose 5.0 mg/kg, DDE = dose-dependent effect
HCT-116 [22] = assay: Antitumor activity against human HCT-116 cells xenografted with BALB/c nude mouse assessed as tumor growth inhibition at 5 to 10 mg/kg, ip administered every 3 days upto 22 days by H and E staining based assay; type: functional, organism-based; conditions: dose 5-10 mg/kg, time <= 22.0 day
[23] = Toxicity in BALB/c nude mouse assessed as changes in body weight at 5 to 10 mg/kg, ip administered every 3 days upto 22 days; type: organism-based; conditions: in vivo, 528 h, dose 5-10 mg/kg, time < 22 day
Sequestosome-1 = Sequestosome-1 (Homo sapiens, UniProt Q13501); assay: Binding affinity to N-terminal P62 (1 to 335 residues) in human HCT-116 cells lysates; type: subcellular; conditions: filed as activator
Sequence of Sequestosome-1 (Q13501 whole entry, the tested form may be a part): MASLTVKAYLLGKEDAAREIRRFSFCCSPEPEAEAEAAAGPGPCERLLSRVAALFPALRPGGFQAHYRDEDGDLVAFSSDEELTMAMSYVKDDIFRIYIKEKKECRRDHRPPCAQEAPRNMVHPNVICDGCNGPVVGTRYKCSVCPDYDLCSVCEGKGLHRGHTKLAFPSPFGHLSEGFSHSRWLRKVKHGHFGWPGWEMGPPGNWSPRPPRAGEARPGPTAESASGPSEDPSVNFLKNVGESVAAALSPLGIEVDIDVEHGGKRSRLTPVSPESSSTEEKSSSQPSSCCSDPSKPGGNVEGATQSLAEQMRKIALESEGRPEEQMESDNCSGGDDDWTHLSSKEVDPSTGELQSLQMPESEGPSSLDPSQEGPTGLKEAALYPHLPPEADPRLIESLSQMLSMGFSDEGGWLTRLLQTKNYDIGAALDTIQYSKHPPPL

Bacteria [24] = assay: Binding affinity to N-terminal His-tagged bacteria P62; conditions: filed as activator
HCT-116 [25] = assay: Induction of P62 to RNF168 protein-protein interaction in human HCT-116 cells lysates by co-immunoprecipitation assay; type: subcellular
Bacteria [26] = assay: Induction of bacteria His-tagged P62 to GST-tagged RNF168 protein-protein interaction by co-immunoprecipitation assay
[27] = Induction of P62 to RNF168 protein-protein interaction (unknown origin) by MST assay; set-up: species or system Homo sapiens
HCT-116 [28] = assay: Induction of P62 to RNF168 protein-protein interaction in human HCT-116 cells lysates chromatin enriched fraction by immunoblotting assay; type: subcellular
[29] = biological target: E3 ubiquitin-protein ligase RNF168 (Homo sapiens, UniProt Q8IYW5); assay: Inhibition of RNF168 activity in human HCT-116 cells assessed as reduction in gamma-H2AX ubiquitination by immunoblotting assay; type: cell-based
Sequence of E3 ubiquitin-protein ligase RNF168 (Q8IYW5 whole entry): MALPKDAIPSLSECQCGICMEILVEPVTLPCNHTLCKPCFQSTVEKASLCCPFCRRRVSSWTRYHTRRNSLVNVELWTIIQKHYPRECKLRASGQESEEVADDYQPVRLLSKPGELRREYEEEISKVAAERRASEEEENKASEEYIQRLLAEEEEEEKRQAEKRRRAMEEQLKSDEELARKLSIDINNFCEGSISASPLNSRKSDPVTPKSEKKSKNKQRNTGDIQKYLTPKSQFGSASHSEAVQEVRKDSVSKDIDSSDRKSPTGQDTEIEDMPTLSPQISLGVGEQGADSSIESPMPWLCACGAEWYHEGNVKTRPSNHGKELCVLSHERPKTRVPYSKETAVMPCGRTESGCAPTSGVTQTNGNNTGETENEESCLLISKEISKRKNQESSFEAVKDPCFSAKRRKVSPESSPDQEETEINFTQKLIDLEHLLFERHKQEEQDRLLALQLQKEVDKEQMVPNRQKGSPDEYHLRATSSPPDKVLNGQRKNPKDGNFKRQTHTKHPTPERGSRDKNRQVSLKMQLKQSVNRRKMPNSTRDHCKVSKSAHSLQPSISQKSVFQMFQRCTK

Bacteria [30] = assay: Induction of bacteria His-tagged P62 to GST-tagged RNF168 protein-protein interaction assessed as decrease in H2A ubiquitination level
HCT-116 [31] = assay: Induction of x-ray sensitivity in human HCT-116 cells; type: functional, cell-based
HeLa = assay: Induction of x-ray sensitivity in human HeLa cells; type: functional, cell-based
U2OS [32] = assay: Induction of x-ray sensitivity in human U2OS cells; type: functional, cell-based
[33] = biological target: T1, Glucocorticoid receptor (Homo sapiens) (UniProt P04150); assay: Inhibition of GR (unknown origin) at 10 uM
T1 sequence (whole entry): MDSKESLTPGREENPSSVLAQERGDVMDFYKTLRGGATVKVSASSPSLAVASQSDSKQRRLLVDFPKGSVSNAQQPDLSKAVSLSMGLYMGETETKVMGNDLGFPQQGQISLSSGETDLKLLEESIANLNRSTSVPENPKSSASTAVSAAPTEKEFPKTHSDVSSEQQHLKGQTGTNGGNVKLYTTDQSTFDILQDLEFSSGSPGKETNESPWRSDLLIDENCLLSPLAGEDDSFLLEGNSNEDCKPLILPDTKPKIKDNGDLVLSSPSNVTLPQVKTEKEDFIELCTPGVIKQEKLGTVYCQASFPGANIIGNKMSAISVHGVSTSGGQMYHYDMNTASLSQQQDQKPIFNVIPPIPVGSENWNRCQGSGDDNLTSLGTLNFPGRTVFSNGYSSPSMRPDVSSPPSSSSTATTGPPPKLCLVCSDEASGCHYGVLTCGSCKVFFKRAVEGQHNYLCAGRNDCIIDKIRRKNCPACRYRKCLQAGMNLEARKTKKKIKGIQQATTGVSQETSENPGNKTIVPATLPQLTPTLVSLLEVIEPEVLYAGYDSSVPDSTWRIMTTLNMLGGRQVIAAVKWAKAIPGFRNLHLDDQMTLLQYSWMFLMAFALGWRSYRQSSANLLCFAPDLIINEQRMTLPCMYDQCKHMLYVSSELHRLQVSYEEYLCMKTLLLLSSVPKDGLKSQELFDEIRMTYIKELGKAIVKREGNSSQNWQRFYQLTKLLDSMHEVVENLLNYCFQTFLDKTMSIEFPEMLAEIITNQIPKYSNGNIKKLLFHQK

Work on `COc1cc(-n2cc(-c3ccc4nc(N)nc(N)c4c3)nn2)cc(OC)c1OC` yielded an IC50 (HepG2) of 19.6 µM, an IC50 (U2OS [1]) of 3.64 µM and an IC50 at 72 h [2] of 6.98 µM. The Activity (HCT-116 [3]) was 53%, the Activity (HCT-116 [4]) was 24.42% and the Activity (HCT-116 [5]) was 18.77%. The Activity (HCT-116 [6]) was 30.79%, the inhibition (U2OS [7]) was “Dde” and the Cmax [8] was 26.1 ng/mL. For the same compound, the Cmax [9] was 52.2 ng/mL, the AUC(0-t) [10] was 215 ng·h/mL and the AUC(0-t) [11] was 408 ng·h/mL. It also gave an AUC(0-t) [12] of 1000 ng·h/mL, a clearance [13] of 243 mL/min/kg and a CLH [14] of 1.87 mL/min. The Activity [15] was “Non-Toxic”, the Activity [16] was “Toxic” and the Activity [17] was “Toxic”. For the same compound, the Activity [18] was “Toxic”, the Activity [19] was “Toxic” and the MTD [20] was 12.5 mg/kg. For the same compound, the Activity (HCT-116 [21]) was “Dde”, the Activity (HCT-116 [22]) was “Active” and the Activity [23] was “Non-Toxic”. For the same compound, the Activity (Sequestosome-1) was “Active”, the Activity (Bacteria [24]) was “Active” and the Activity (HCT-116 [25]) was “Active”. The Activity (Bacteria [26]) was “Active”, the Kd [27] was 0.89 µM and the Activity (HCT-116 [28]) was “Active”. The inhibition [29] was “Active”, the Activity (Bacteria [30]) was “Active” and the Activity (HCT-116 [31]) was “Active”. For the same compound, the Activity (HeLa) was “Active”, the Activity (U2OS [32]) was “Active” and the inhibition [33] was “Active”.

Reference: ChEMBL document CHEMBL5096229, “A 1,2,3-Triazole Derivative of Quinazoline Exhibits Antitumor Activity by Tethering RNF168 to SQSTM1/P62” (J Med Chem, 2022)
